From patent US20210395651A1, “COMPOUNDS STABILIZING HYDROLASES IN LIQUIDS” (BASF SE, priority 2018, published 2021)

target: T1, Lipolase® 100L (Thermomyces lanuginosus, UniProt O59952); assay: Lipase storage stability in liquid formulations at 37° C. (pNP-valerate activity); type: biochemical, Thermomyces lanuginosa; conditions: base formulation I. (Lipolase 0.2 wt%, tested compound 2.5 wt%); 3 d storage at 37° C.
T1 construct: purchased Sigma-Aldrich
T1 sequence (O59952 23-291): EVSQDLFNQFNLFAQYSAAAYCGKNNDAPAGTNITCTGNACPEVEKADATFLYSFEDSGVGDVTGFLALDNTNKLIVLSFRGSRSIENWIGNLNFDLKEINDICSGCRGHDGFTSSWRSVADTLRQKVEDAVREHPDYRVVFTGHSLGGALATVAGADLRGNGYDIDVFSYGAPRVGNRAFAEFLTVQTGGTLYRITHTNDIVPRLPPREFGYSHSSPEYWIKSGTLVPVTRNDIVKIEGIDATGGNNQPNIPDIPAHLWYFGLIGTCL
Method: The storage stability of Lipase was assessed at 37° C.
Base test formulations were manufactured by making base formulations I to V by mixing the components according to Table 1.
The respective component (a) or comparative compound was added, if applicable, to the respective base formulation in amounts as indicated in Table 1.
Lipase used: Lipolase® 100L (CAS-No. 9001-62-1, EC-No. 232-619-9) was purchased from Sigma-Aldrich.
The amount of lipase as provided in Table 1 refers to active protein.
Water was added to accomplish the balance to 100.
Lipolase activity at certain points in time as indicated in Table 2 was be determined by employing pNitrophenol-valerate (2.4 mM pNP-C5 in 100 mM Tris pH 8.0, 0.01% Triton X100) as a substrate. The absorption at 405 nm was measured at 20° C. every 30 seconds over 5 minutes.
The slope (absorbance increase at 405 nm per minute) of the time dependent absorption-curve is directly proportional to the activity of the lipase.
The […] activity values provided in Table 2 were calculated referring to the 100% value determined in the reference formulation at the time 0.
The nomenclature of formulations is as follows: the Roman number before the full stop characterizes the base formulation, the Arabian number the type of compound (A.# compound according to invention (component (a)); (B.#) comparative compound).

| SMILES | lipase activity, 3 d |
| --- | --- |
| O=C(O)CC(O)(CC(=O)O)C(=O)O [B.1, citric acid, reference compound] | 89% |

same assay, conditions: base formulation I. (Lipolase 0.2 wt%, tested compound 2.5 wt%); 7 d storage at 37° C.

| SMILES | lipase activity, 7 d |
| --- | --- |
| O=C(O)CC(O)(CC(=O)O)C(=O)O [B.1, citric acid, reference compound] | 81% |

same assay, conditions: base formulation I. (Lipolase 0.2 wt%, tested compound 2.5 wt%); 14 d storage at 37° C.

| SMILES | lipase activity, 14 d |
| --- | --- |
| O=C(O)CC(O)(CC(=O)O)C(=O)O [B.1, citric acid, reference compound] | 73% |

same assay, conditions: base formulation I. (Lipolase 0.2 wt%, tested compound 2.5 wt%); 21 d storage at 37° C.

| SMILES | lipase activity, 21 d |
| --- | --- |
| O=C(O)CC(O)(CC(=O)O)C(=O)O [B.1, citric acid, reference compound] | 61% |

same assay, conditions: base formulation I. (Lipolase 0.2 wt%, tested compound 2.5 wt%); 28 d storage at 37° C.

| SMILES | lipase activity, 28 d |
| --- | --- |
| O=C(O)CC(O)(CC(=O)O)C(=O)O [B.1, citric acid, reference compound] | 50% |

same assay, conditions: base formulation I. (Lipolase 0.2 wt%, tested compound 2.5 wt%); 35 d storage at 37° C.

| SMILES | lipase activity, 35 d |
| --- | --- |
| O=C(O)CC(O)(CC(=O)O)C(=O)O [B.1, citric acid, reference compound] | 29% |

same assay, conditions: base formulation I. (Lipolase 0.2 wt%, tested compound 2.5 wt%); T0; relative to 100% value of reference formulation at time 0

| SMILES | lipase activity, T0 |
| --- | --- |
| O=C(O)CC(O)(CC(=O)O)C(=O)O [B.1, citric acid, reference compound] | 100% |

same assay, conditions: base formulation III. (Lipolase 0.2 wt%, tested compound 2.0 wt%); 3 d storage at 37° C.

| SMILES | lipase activity, 3 d |
| --- | --- |
| O=C(O)CC(O)(CC(=O)O)C(=O)O [B.1, citric acid, reference compound] | 92% |

same assay, conditions: base formulation III. (Lipolase 0.2 wt%, tested compound 2.0 wt%); 7 d storage at 37° C.

| SMILES | lipase activity, 7 d |
| --- | --- |
| O=C(O)CC(O)(CC(=O)O)C(=O)O [B.1, citric acid, reference compound] | 78% |

same assay, conditions: base formulation III. (Lipolase 0.2 wt%, tested compound 2.0 wt%); 14 d storage at 37° C.

| SMILES | lipase activity, 14 d |
| --- | --- |
| O=C(O)CC(O)(CC(=O)O)C(=O)O [B.1, citric acid, reference compound] | 70% |

same assay, conditions: base formulation III. (Lipolase 0.2 wt%, tested compound 2.0 wt%); 21 d storage at 37° C.

| SMILES | lipase activity, 21 d |
| --- | --- |
| O=C(O)CC(O)(CC(=O)O)C(=O)O [B.1, citric acid, reference compound] | 51% |

same assay, conditions: base formulation III. (Lipolase 0.2 wt%, tested compound 2.0 wt%); 28 d storage at 37° C.

| SMILES | lipase activity, 28 d |
| --- | --- |
| O=C(O)CC(O)(CC(=O)O)C(=O)O [B.1, citric acid, reference compound] | 39% |

same assay, conditions: base formulation III. (Lipolase 0.2 wt%, tested compound 2.0 wt%); 35 d storage at 37° C.

| SMILES | lipase activity, 35 d |
| --- | --- |
| O=C(O)CC(O)(CC(=O)O)C(=O)O [B.1, citric acid, reference compound] | 30% |

same assay, conditions: base formulation III. (Lipolase 0.2 wt%, tested compound 2.0 wt%); T0; relative to 100% value of reference formulation at time 0

| SMILES | lipase activity, T0 |
| --- | --- |
| O=C(O)CC(O)(CC(=O)O)C(=O)O [B.1, citric acid, reference compound] | 102% |

same assay, conditions: base formulation IV. (Lipolase 0.2 wt%, tested compound 2.0 wt%); 3 d storage at 37° C.

| SMILES | lipase activity, 3 d |
| --- | --- |
| O=C(O)CC(O)(CC(=O)O)C(=O)O [B.1, citric acid, reference compound] | 95% |

same assay, conditions: base formulation IV. (Lipolase 0.2 wt%, tested compound 2.0 wt%); 7 d storage at 37° C.

| SMILES | lipase activity, 7 d |
| --- | --- |
| O=C(O)CC(O)(CC(=O)O)C(=O)O [B.1, citric acid, reference compound] | 82% |

same assay, conditions: base formulation IV. (Lipolase 0.2 wt%, tested compound 2.0 wt%); 14 d storage at 37° C.

| SMILES | lipase activity, 14 d |
| --- | --- |
| O=C(O)CC(O)(CC(=O)O)C(=O)O [B.1, citric acid, reference compound] | 70% |

same assay, conditions: base formulation IV. (Lipolase 0.2 wt%, tested compound 2.0 wt%); 21 d storage at 37° C.

| SMILES | lipase activity, 21 d |
| --- | --- |
| O=C(O)CC(O)(CC(=O)O)C(=O)O [B.1, citric acid, reference compound] | 58% |

same assay, conditions: base formulation IV. (Lipolase 0.2 wt%, tested compound 2.0 wt%); 28 d storage at 37° C.

| SMILES | lipase activity, 28 d |
| --- | --- |
| O=C(O)CC(O)(CC(=O)O)C(=O)O [B.1, citric acid, reference compound] | 43% |

same assay, conditions: base formulation IV. (Lipolase 0.2 wt%, tested compound 2.0 wt%); 35 d storage at 37° C.

| SMILES | lipase activity, 35 d |
| --- | --- |
| O=C(O)CC(O)(CC(=O)O)C(=O)O [B.1, citric acid, reference compound] | 36% |

same assay, conditions: base formulation IV. (Lipolase 0.2 wt%, tested compound 2.0 wt%); T0; relative to 100% value of reference formulation at time 0

| SMILES | lipase activity, T0 |
| --- | --- |
| O=C(O)CC(O)(CC(=O)O)C(=O)O [B.1, citric acid, reference compound] | 97% |

same assay, conditions: base formulation V. (Lipolase 0.2 wt%, tested compound 2.0 wt%); 3 d storage at 37° C.

| SMILES | lipase activity, 3 d |
| --- | --- |
| O=C(O)CC(O)(CC(=O)O)C(=O)O [B.1, citric acid, reference compound] | 93% |

same assay, conditions: base formulation V. (Lipolase 0.2 wt%, tested compound 2.0 wt%); 7 d storage at 37° C.

| SMILES | lipase activity, 7 d |
| --- | --- |
| O=C(O)CC(O)(CC(=O)O)C(=O)O [B.1, citric acid, reference compound] | 86% |

same assay, conditions: base formulation V. (Lipolase 0.2 wt%, tested compound 2.0 wt%); 14 d storage at 37° C.

| SMILES | lipase activity, 14 d |
| --- | --- |
| O=C(O)CC(O)(CC(=O)O)C(=O)O [B.1, citric acid, reference compound] | 74% |

same assay, conditions: base formulation V. (Lipolase 0.2 wt%, tested compound 2.0 wt%); 21 d storage at 37° C.

| SMILES | lipase activity, 21 d |
| --- | --- |
| O=C(O)CC(O)(CC(=O)O)C(=O)O [B.1, citric acid, reference compound] | 63% |

same assay, conditions: base formulation V. (Lipolase 0.2 wt%, tested compound 2.0 wt%); 28 d storage at 37° C.

| SMILES | lipase activity, 28 d |
| --- | --- |
| O=C(O)CC(O)(CC(=O)O)C(=O)O [B.1, citric acid, reference compound] | 52% |

same assay, conditions: base formulation V. (Lipolase 0.2 wt%, tested compound 2.0 wt%); 35 d storage at 37° C.

| SMILES | lipase activity, 35 d |
| --- | --- |
| O=C(O)CC(O)(CC(=O)O)C(=O)O [B.1, citric acid, reference compound] | 43% |

same assay, conditions: base formulation V. (Lipolase 0.2 wt%, tested compound 2.0 wt%); T0; relative to 100% value of reference formulation at time 0

| SMILES | lipase activity, T0 |
| --- | --- |
| O=C(O)CC(O)(CC(=O)O)C(=O)O [B.1, citric acid, reference compound] | 98% |
